This test has as its target T1, acetylcholine muscarinic M1 receptor (CHOnfat/hM1 cells) (Homo sapiens, UniProt P11229).
T1 construct: expressed in transfected cells; host or cells: CHOnfat cells (CHOnfat/hM1; Geneticin-selected)
T1 sequence (P11229 1-460): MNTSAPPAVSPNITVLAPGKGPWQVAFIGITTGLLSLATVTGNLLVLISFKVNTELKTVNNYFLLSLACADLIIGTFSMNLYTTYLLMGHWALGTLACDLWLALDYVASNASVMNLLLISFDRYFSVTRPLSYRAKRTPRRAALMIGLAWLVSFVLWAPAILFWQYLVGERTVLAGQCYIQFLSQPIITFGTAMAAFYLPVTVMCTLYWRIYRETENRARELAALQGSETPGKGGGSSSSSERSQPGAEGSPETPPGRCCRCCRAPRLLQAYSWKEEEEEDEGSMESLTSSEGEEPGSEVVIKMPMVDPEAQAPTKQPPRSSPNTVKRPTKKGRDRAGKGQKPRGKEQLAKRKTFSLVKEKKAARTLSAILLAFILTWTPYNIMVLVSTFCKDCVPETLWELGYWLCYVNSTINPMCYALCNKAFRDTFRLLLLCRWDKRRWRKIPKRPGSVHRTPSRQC
Kind of test: muscarinic M1 FLIPR intracellular calcium assay (positive allosteric modulation). The conditions noted are these: FLIPR Ca2+, 4 min preincubation, then EC20 acetylcholine (3 nM final), read-out: IP Value (inflection point). It is filed as cell-based. As to the method: The assay studies the effect of one or several concentrations of test compounds on basal or acetylcholine-stimulated Ca^2+ levels using FLIPR.
Compounds are prepared and subjected to a preincubation period of 4 min. Thereafter, a single EC20 concentration of acetylcholine is added to each well (3 nM final). The intracellular Ca^2+ level of each sample is measured and compared to an acetylcholine control to determine any modulatory activity.
Cells: CHOnfat/hM1, hM2, hM3 or hM4 cells are plated 24 hr before the assay at a density of 18,000 cells/well (100 μL) in a 384 well plate. CHOnfat/hM1 and CHOnfat/hM3 Growth Medium: 90% DMEM (Hi Glucose); 10% HI FBS; 2 mM L-glutamine; 0.1 mM NEAA; Pen-Strep; and 1 mg/ml Geneticin, are added. For M2Gqi5CHOnfat and M4Gqi5CHOnfat cells, an additional 600 ug/ml hygromycin is added.
Equipment: 384 well plate, 1204 addition plate; 96-well Whatman 2 ml Uniplate Incubator, 37° C., 5% CO2; Skatron EMBLA-384 Plate Washer; Multimek Pipetting System; Genesis Freedom 200 System; Mosquito System; Temo Nanoliter Pipetting System; and FLIPR^384 Fluorometric Imaging Plate Reader System are used.
Buffers. Assay Buffer: Hanks Balanced Salt Solution, with 20 mM Hepes, 2.5 mM Probenecid (Sigma P-8761) first dissolved in 1 N NaOH, 1% Bovine Serum Albumin (Sigma A-9647). Dye Loading Buffer: Assay Buffer plus 1% Fetal Bovine Serum and Fluo-4AM/Pluronic Acid Mixture. 2 mM Fluo-4AM ester stock in DMSO (Molecular Probes F-14202) Concentration of 2 μM in buffer for a final concentration of 1 μM in Assay. 20% Pluronic Acid Solution stock, with concentration of 0.04% in Buffer, 0.02% in Assay.
65 μL of 2 mM Fluo-4AM are mixed with 130 μL of 20% Pluronic Acid. The resulting solution and 650 μL FBS is added to the assay buffer for a total volume of 65 mL. Positive Controls: 4-Br-A23187: 10 mM in DMSO; final concentration 10 μM. Acetylcholine: 10 mM in water, working stock at both 20 μM and 30 μM in assay buffer, final concentration of 10 μM. This is used to check the maximum stimulation of the CHOK1/hM1 cells, 20 μM (2×) acetylcholine is added in the preincubation part of the assay, and the 30 μM (3×) stock is added in the second part. (EC20)Acetylcholine: 10 mM in water, working stock of 9 nM (3×), and final concentration in assay is 3 nM. This is used after the preincubation with test compounds. Addition of the EC20 Acetylcholine to each well with a test compound will ascertain any modulator activity. 24 wells contain 3 nM Acetylcholine alone as a control.
Determining Activity of Putative Compounds:
Screening Plate Compounds are titrated in 96-well plates (columns 2-11), 100% DMSO, started at a concentration of 15 mM (150× stock concentration), and 3-fold serial dilutions using Genesis Freedom200 System. Four 96-well plates are combined into a 384-well plate using Mosquito Nanoliter Pipetting System by transferring 1 μl of serial diluted compounds to each well, and 1 mM acetylcholine (100× stock concentration) were added as a control. Using Temo, 49 μl assay buffer is added to each well of the 384-well plate right before assay.
In a 96-well Whatman 2 ml Uniplate, 9 nM Acetylcholine (3×) is pipetted into wells corresponding to the screening compounds, and into control wells. The 30 μM acetylcholine control (3×) is added into control wells, and the 3× agonist plate is transferred into a 384 well plate.
Cells are washed three times with 100 μl, of buffer, leaving 30 μl of buffer in each well. Using Multimek, 30 μL of Dye Loading Buffer is added into each well and incubated at 37° C., 5% CO2 for up to one hr.
After 60 min, the cells are washed three times with 100 μl of buffer, leaving 30 μl, of buffer in each well. The cell plate, screening plate, and agonist addition plates are placed on the platform in the FLIPR and the door closed. A signal test to check background fluorescence and basal fluorescence signal is performed. Laser intensity is adjusted if necessary. […]
Regarding `Cc1ccnc(N[C@H]2CCCC[C@@H]2n2cc3c(=O)n(-c4nccc(C)c4F)nc-3c3c(NCc4ccc(-n5cccn5)cc4)c(F)ccc32)c1F` (racemic) [Example 733, (±)-8-Fluoro-2-(3-fluoro-4-methylpyridin-2-yl)-5-trans-2-[(3-fluoro-4-methylpyridin-2-yl)amino]cyclohexy}-9-({[4-(1H-pyrazol-1-yl)phenyl]methyl}amino)-2,5-dihydro-3H-pyrazolo[4,3-c]quinolin-3-one], the EC50 was found to be 653 nM.
For `CC(C)Cn1cc(-c2ccc(Cn3cc4c(=O)n(-c5ccccc5F)nc-4c4ccccc43)cn2)cn1` [Example 242] the value was 159 nM; for `O=c1c2cn(Cc3ccc(-n4cccn4)cc3)c3ccccc3c-2nn1-c1ccccc1CN1CCCC1` [Example 648, 5-{[4-(1H-Pyrazol-1-yl)phenyl]methyl}-2-[2-(pyrrolodin-1-ylmethyl)phenyl]-2,5-dihydro-3H-pyrazolo[4,3-c]quinolin-3-one], 179 nM; for `O=C1CCc2cccc(-n3nc4c5ccccc5n(Cc5ccc(-n6cccn6)cc5)cc-4c3=O)c21` [Example 587], 4.8 nM.
Then `O=c1c2cn(Cc3c(F)cccc3F)c3ccccc3c-2nn1-c1ccccc1F` [Example 294], with 824 nM.
For `O=c1c2cn(Cc3ccc(-n4cccn4)cc3)c3c(F)ccc(F)c3c-2nn1-c1ccccc1CO` [Example 55, 6,9-Difluoro-2-[2-(hydroxymethyl)phenyl]-5-{[4-(1H-pyrazol-1-yl)phenyl]methyl}-2,5-dihydro-3H-pyrazolo[4,3-c]quinolin-3-one] the value was 204 nM; for `O=c1c2cn(Cc3ccc(-c4ccccc4)cc3)c3ccccc3c-2nn1-c1ccccc1F` [Example 8, 2-(2-Fluorophenyl)-5-(biphenyl-4-ylmethyl)-2,5-dihydro-3H-pyrazolo[4,3-c]quinolin-3-one], 1990 nM.
Turning to `Cc1ccc(-c2ccc(Cn3cc4c(=O)n(-c5ccccc5F)nc-4c4ccccc43)nc2)cn1` [Example 258], the EC50 was 246 nM.
With `Cn1cnc(-n2nc3c4c(F)ccc(F)c4n(Cc4ccc(-n5cccn5)cc4)cc-3c2=O)c1` [Example 24, 6,9-Difluoro-2-(1-methyl-1H-imidazol-4-yl)-5-{[4-(1H-pyrazol-1-yl)phenyl]methyl}-2,5-dihydro-3H-pyrazolo[4,3-c]quinolin-3-one], the EC50 is 103 nM.
For `O=c1c2cn(Cc3ccc(-n4cccn4)cc3)c3c(F)ccc(F)c3c-2nn1-c1ncccc1C(F)(F)F` [Example 77, 6,9-Difluoro-5-{[4-(1H-pyrazol-1-yl)phenyl]methyl}-2-[3-(trifluoromethyl)pyridin-2-yl]-2,5-dihydro-3H-pyrazolo[4,3-c]quinolin-3 one] the value was 65 nM.
Then `O=c1c2cn(Cc3ccc(-n4cncn4)cc3F)c3c(F)ccc(F)c3c-2nn1-c1ccccc1F` [Example 84, 6,9-Difluoro-2-(2-fluorophenyl)-5-{[2-fluoro-4-(1H-1,2,4-triazol-1-yl)phenyl]methyl}-2,5-dihydro-3H-pyrazolo[4,3-c]quinolin-3-one], with 348 nM.
For `CC(=O)N1CCC(n2nc3c4ccccc4n(Cc4ccc(-n5cccn5)cc4)cc-3c2=O)CC1` [Example 675, 2-(1-Acetylpiperidin-4-yl)-5-{[4-(1H-pyrazol-1-yl)phenyl]methyl}-2,5-dihydro-3H-pyrazolo[4,3-c]quinolin-3-one5] the value was 664 nM.
For the molecule `O=c1c2cn(Cc3ccc(-n4cccn4)cc3)c3ccccc3c-2nn1-c1ccccc1F` [Example 107, 2-Fluorophenyl-5-{[4-(1H-pyrazol-1-yl)phenyl]methyl}-2,5-dihydro-3H-pyrazolo[4,3-c]quinolin-3-one], the EC50 was found to be 59 nM.
In the case of `O=C1CCCCC1n1nc2c3ccccc3n(Cc3ccc(-n4cccn4)cc3)cc-2c1=O` (racemic) [Example 720, (±)-2-(2-oxocyclohexyl)-5-{[4-(1H-pyrazol-1-yl)phenyl]methyl}-2,5-dihydro-3H-pyrazolo[4,3-c]quinolin-3-one], the EC50 stood at 135 nM.
Regarding `N#Cc1cccc(F)c1-n1nc2c3ccccc3n(Cc3ccc(-n4cccn4)cc3)cc-2c1=O` [Example 667, 3-Fluoro-2-(3-oxo-5-{[4-(1H-pyrazol-1-yl)phenyl]methyl}-3,5-dihydro-2H-pyrazolo[4,3-c]quinolin-2-yl)benzonitrile], the EC50 amounted to 22 nM.
In the case of `O=c1c2cn(Cc3ccc(-n4cccn4)cc3)c3ccccc3c-2nn1C1CCOCC1` [Example 428], the EC50 was 359 nM.
`COc1ccc(Cn2cc3c(=O)n(-c4ccccc4F)nc-3c3ccccc32)cc1` [Example 1, 2-(2-Fluorophenyl)-5-{[4-(methoxy)phenyl]methyl}-2,5-dihydro-3H-pyrazolo[4,3-c]quinolin-3-one]: the EC50 was 415 nM.
As to `O=c1c2cn(Cc3ccc(-n4cccn4)cc3)c3ccccc3c-2nn1[C@H]1CCCC[C@@H]1O` (racemic) [Example 508, (±)-2-(trans-2-Hydroxycyclohexyl)-5-{[4-(1H-pyrazol-1-yl)phenyl]methyl}-2,5-dihydro-3H-pyrazolo[4,3-c]quinolin-3-one], the EC50 was 33 nM.
`O=c1c2cn(Cc3ccc4[nH]ccc4c3)c3ccccc3c-2nn1-c1ccccc1F` [Example 109, 2-(2-Fluorophenyl)-5-(1H-indol-5-ylmethyl)-2,5-dihydro-3H-pyrazolo[4,3-c]quinolin-3-one]: the EC50 is 90 nM.
Then `O=c1c2cn(Cc3ccc(-c4ccc5[nH]ccc5c4)cc3F)c3ccccc3c-2nn1-c1ccccc1F` [Example 187, 5{[2-Fluoro-4-(1H-indol-5-yl)phenyl]methyl}-2-(2-fluorophenyl)-2,5-dihydro-3H-pyrazolo[4,3-c]quinolin-3-one], with 1640 nM; and `O=c1c2cn(Cc3ccc(-c4ncco4)cc3)c3ccccc3c-2nn1-c1ccccc1F` [Example 381], with 900 nM; and `CNC(=O)c1ccccc1-n1nc2c3ccccc3n(Cc3ccc(-n4cccn4)cc3)cc-2c1=O` [Example 612, N-Methyl-2-(3-oxo-5-{[4-(1H-pyrazol-1-yl)phenyl]methyl}-3,5-dihydro-2H-pyrazolo[4,3-c]quinolin-2-yl)benzamide], with 4870 nM.
Then `CCN(CC)C(=O)Cn1nc2c3ccccc3n(Cc3ccc(-n4cccn4)cc3)cc-2c1=O` [Example 690, N,N-Diethyl-2-(3-oxo-5-{[4-(1H-pyrazol-1-yl)phenyl]methyl}-3,5-dihydro-2H-pyrazol[4,3-c]quinolin-2-yl)acetamide], with 1250 nM.
For `CCNCc1ccccc1-n1nc2c3c(F)ccc(F)c3n(Cc3ccc(-n4cccn4)cc3)cc-2c1=O` [Example 56] the value was 123 nM.

For the origin of these results see patent US8895580B2, “Quinolinone-pyrazolone M1 receptor positive allosteric modulators” (Merck Sharp & Dohme Corp., priority 2009, dated 2014).
